29 molecules from patent US9663496B2, “AMPK-activating heterocyclic compounds and methods for using the same” (Rigel Pharmaceuticals, Inc., priority 2010, dated 2017) can be followed below.

For this assay, the target named is AMPK. Nature of the assay: AMPK activation, enzyme-linked immunosorbent assay. In kind it is biochemical. The following applies: EC50 for AMPK activation, ELISA. The procedure, abridged: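 Activator screen performed per well-known kit methods.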
One may read the EC50 as the concentration giving half of the maximal effect. A low value points to an effect from little substance. `O=C(Nc1ccc(C(=O)N2CCN(Cc3ccc(F)cc3)CC2)cn1)c1ccc(-c2ccccc2)cc1` [Compound 170, N-(5-(4-(4-fluorobenzyl)piperazine-1-carbonyl)pyridin-2-yl)biphenyl-4-carboxamide] returned an EC50 of over 10000 nM. The value for `CN(C)C(=O)c1ccc(OC2CCN(C(=O)c3ccc(C(=O)Nc4ccc(Oc5ccc(F)cc5)nc4)nc3)CC2)cc1` [Compound 360, 5-(4-(4-(dimethylcarbamoyl)phenoxy)piperidine-1-carbonyl)-N-(6-(4-fluorophenoxy)pyridin-3-yl)picolinamide] was under 500 nM; that for `O=C(Nc1ccc(Oc2ccc(F)cc2)nc1)c1ccc(C(=O)N2CCC(Oc3ccc(S(F)(F)(F)(F)F)cc3)CC2)nc1` [Compound 496, N-(6-(4-fluorophenoxy)pyridin-3-yl)-6-(4-(4-(pentafluorosulfanyl)phenoxy)piperidine-1-carbonyl)nicotinamide] was under 500 nM; that for `O=C(NC1CCN(Cc2cc(F)cc(F)c2)CC1)c1ccc(C(=O)N2CCC(Oc3ccc(F)c(F)c3)CC2)cn1` [Compound 297, N-(1-(3,5-difluorobenzyl)piperidin-4-yl)-5-(4-(3,4-difluorophenoxy)piperidine-1-carbonyl)picolinamide] was under 500 nM. `N#Cc1ccc(CN2CCC(NC(=O)c3ccc(N4CCN(Cc5ccc(F)cc5)CC4)nn3)CC2)cc1` [Compound 491, N-(1-(4-cyanobenzyl)piperidin-4-yl)-6-(4-(4-fluorobenzyl)piperazin-1-yl)pyridazine-3-carboxamide]: the EC50 was 1000 to 5000 nM.

On to `O=C(NC1CCN(C(=O)c2ccccc2)CC1)c1ccc(C(=O)N2CCN(Cc3ccc(F)cc3)CC2)cn1` [Compound 8, N-(1-(benzoyl)piperidin-4-yl)-5-(4-(4-fluorobenzyl)piperazine-1-carbonyl)picolinamide], for which the EC50 is under 500 nM. The value for `N#Cc1ccc(CN2CCC(NC(=O)c3ccc(C(=O)N4CCC(C(=O)c5ccc(-n6cccn6)cc5)CC4)cn3)CC2)cc1` [Compound 375, 5-(4-(4-(1H-pyrazol-1-yl)benzoyl)piperidine-1-carbonyl)-N-(1-(4-cyanobenzyl)piperidin-4-yl)picolinamide] was under 500 nM; that for `N#Cc1ccc(CN2CCC(NC(=O)c3ccc(C(=O)N4CCN(c5ccc(S(=O)(=O)C6CC6)cc5)CC4)cn3)CC2)cc1` [Compound 256, N-(1-(4-cyanobenzyl)piperidin-4-yl)-5-(4-(4-(cyclopropylsulfonyl)phenyl)piperazine-1-carbonyl)picolinamide] was under 500 nM.

Consider `CS(=O)(=O)c1ccc(C(=O)C2CCN(C(=O)c3ccc(C(=O)NC4CCN(Cc5ccc(C#N)cc5)CC4)cn3)CC2)cc1` [Compound 221, N-(1-(4-cyanobenzyl)piperidin-4-yl)-6-(4-(4-(methylsulfonyl)benzoyl)piperidine-1-carbonyl)nicotinamide], for which the EC50 fell in the range of 1000 to 5000 nM. The value for `N#Cc1ccc(CN2CCC(NC(=O)c3ncc(C(=O)N4CCN(Cc5ccc(F)cc5)CC4)cc3CCCNC(=O)CCOCCOCCOCCOCCNC(=O)CCCC[C@@H]3SC[C@@H]4NC(=O)N[C@@H]43)CC2)cc1` [Compound 291, N-(1-(4-cyanobenzyl)piperidin-4-yl)-3-(5,21-dioxo-25-((3aS,4S,6aR)-2-oxohexahydro-1H-thieno[3,4-d]imidazol-4-yl)-8,11,14,17-tetraoxa-4,20-diazapentacosyl)-5-(4-(4-fluorobenzyl)piperazine-1-carbonyl)picolinamide] was under 500 nM; that for `CS(=O)(=O)c1ccc(OC2CCN(C(=O)c3ccc(C(=O)Nc4ccc(Oc5ccc(F)cc5)nc4)nc3)CC2)cc1` [Compound 231, N-(6-(4-fluorophenoxy)pyridin-3-yl)-5-(4-(4-(methylsulfonyl)phenoxy)piperidine-1-carbonyl)picolinamide] was under 500 nM. Molecule `COc1ccc(C(=O)C2CCN(C(=O)c3ccc(C(=O)NC4CCN(Cc5ccc(S(C)(=O)=O)cc5)CC4)cn3)CC2)cc1` [Compound 215, 6-(4-(4-methoxybenzoyl)piperidine-1-carbonyl)-N-(1-(4-(methylsulfonyl)benzyl)piperidin-4-yl)nicotinamide] returned an EC50 of over 10000 nM. On to `COc1ccc(C(=O)C2CCN(C(=O)c3ccc(C(=O)N[C@H]4CC[C@@H](Oc5ccc(C#N)c(F)c5)CC4)nc3)CC2)cc1` [Compound 198, N-((cis)-4-(4-cyano-3-fluorophenoxy)cyclohexyl)-5-(4-(4-methoxybenzoyl)piperidine-1-carbonyl)picolinamide], for which the EC50 was under 500 nM. For `COc1ccc(C(=O)C2CCN(C(=O)c3ccc(C(=O)NC4CCN(Cc5cc(F)cc(F)c5)CC4)nc3)CC2)cc1` [Compound 287, N-(1-(3,5-difluorobenzyl)piperidin-4-yl)-5-(4-(4-methoxybenzoyl)piperidine-1-carbonyl)picolinamide] the value was under 500 nM; for `N#Cc1ccc(O[C@H]2CC[C@@H](NC(=O)c3ccc(C(=O)N4CCN(Cc5ccc(F)cc5)CC4)cn3)CC2)cc1` [Compound 150, N-(cis-4-(4-cyanophenoxy)cyclohexyl)-5-(4-(4-fluorobenzyl)piperazine-1-carbonyl)picolinamide], under 500 nM; for `CCOC(=O)C(c1ccccc1)N1CCC(NC(=O)c2ccc(C(=O)N3CCN(Cc4ccc(F)cc4)CC3)cn2)CC1` (centres unmarked) [Compound 98, ethyl 2-(4-(5-(4-(4-fluorobenzyl)piperazine-1-carbonyl)picolinamido)piperidin-1-yl)-2-phenylacetate], 1000 to 5000 nM. For `N#Cc1ccc(CN2CCC(NC(=O)c3ccc(C(=O)N4CC[C@H](Oc5ccc(C#N)cc5)[C@@H](F)C4)cn3)CC2)cc1` (relative stereo) [Compound 279, N-(1-(4-cyanobenzyl)piperidin-4-yl)-5-((trans)-4-(4-cyanophenoxy)-3-fluoropiperidine-1-carbonyl)picolinamide] the value was under 500 nM; for `COc1ccc(CN2CCC(NC(=O)c3ccc(C(=O)N4CCC(S(=O)(=O)c5ccc(F)cc5)CC4)nc3)CC2)cc1` [Compound 474, 6-(4-(4-fluorophenylsulfonyl)piperidine-1-carbonyl)-N-(1-(4-methoxybenzyl)piperidin-4-yl)nicotinamide], 1000 to 5000 nM. For `COc1ccc(N2CCC(NC(=O)c3ccc(C(=O)N4CCN(Cc5ccc(F)cc5)CC4)nc3)CC2)cc1` [Compound 405, 6-(4-(4-fluorobenzyl)piperazine-1-carbonyl)-N-(1-(4-methoxyphenyl)piperidin-4-yl)nicotinamide] the value was under 500 nM; for `COc1ccc(C(=O)C2CCN(C(=O)c3ccc(C(=O)N[C@@H]4CCN(Cc5ccc(OC(F)(F)F)cc5)C[C@H]4F)cn3)CC2)cc1` (relative stereo) [Compound 350, N-((trans)-3-fluoro-1-(4-(trifluoromethoxy)benzyl)piperidin-4-yl)-6-(4-(4-methoxybenzoyl)piperidine-1-carbonyl)nicotinamide], under 500 nM. `O=C(NC1CCN(Cc2ccc(F)cc2)CC1)c1ccc(C(=O)N2CCC(C(=O)c3ccc(F)cc3)CC2)cn1` [Compound 181, 5-(4-(4-fluorobenzoyl)piperidine-1-carbonyl)-N-(1-(4-fluorobenzyl)piperidin-4-yl)picolinamide] returned an EC50 of under 500 nM.

As to `O=C(NC1CCN(Cc2ccccc2)CC1)c1ccc(C(=O)N2CCN(c3ccncc3)CC2)cn1` [Compound 96, N-(1-benzylpiperidin-4-yl)-5-(4-(pyridin-4-yl)piperazine-1-carbonyl)picolinamide], the EC50 is over 10000 nM. The value for `COc1ccc(OC2CCN(C(=O)c3ccc(C(=O)N[C@H]4CC[C@H](Oc5ccc(C#N)cc5)CC4)nc3)CC2)cc1` [Compound 172, N-((trans)-4-(4-cyanophenoxy)cyclohexyl)-5-(4-(4-methoxyphenoxy)piperidine-1-carbonyl)picolinamide] was under 500 nM; that for `CS(=O)(=O)c1ccc(C(=O)C2CCN(C(=O)c3ccc(C(=O)NC4CCN(Cc5ccc(F)cc5)CC4)nc3)CC2)cc1` [Compound 225, N-(1-(4-fluorobenzyl)piperidin-4-yl)-5-(4-(4-(methylsulfonyl)benzoyl)piperidine-1-carbonyl)picolinamide] was under 500 nM; that for `N#Cc1ccc(CN2CCC(NC(=O)c3ccc(C(=O)N4CCC(Oc5ccc(S(=O)(=O)C(F)(F)F)cc5)CC4)cn3)CC2)cc1` [Compound 415, N-(1-(4-cyanobenzyl)piperidin-4-yl)-5-(4-(4-(trifluoromethylsulfonyl)phenoxy)piperidine-1-carbonyl)picolinamide] was under 500 nM. The value for `N#Cc1ccc(CC2CCN(C(=O)c3ccc(C(=O)NC4CCN(Cc5ccc(C#N)cc5)CC4)nc3)CC2)cc1` [Compound 128, N-(1-(4-cyanobenzyl)piperidin-4-yl)-5-(4-(4-cyanobenzyl)piperidine-1-carbonyl)picolinamide] was under 500 nM.

In turn, `N#Cc1ccc(CN2CCC(NC(=O)c3ccc(C(=O)N4CCCCC4Cc4ccc(F)cc4)cn3)CC2)cc1` (centres unmarked) [Compound 153, N-(1-(4-cyanobenzyl)piperidin-4-yl)-5-(2-(4-fluorobenzyl)piperidine-1-carbonyl)picolinamide] came in with an EC50 of 1000 to 5000 nM. Take `O=C(NC1CCN(Cc2ccc(N3CCCC3)cc2)CC1)c1ccc(C(=O)N2CCC(Oc3ccc(S(=O)(=O)C4CC4)cc3)CC2)nc1` [Compound 248, 6-(4-(4-(cyclopropylsulfonyl)phenoxy)piperidine-1-carbonyl)-N-(1-(4-(pyrrolidin-1-yl)benzyl)piperidin-4-yl)nicotinamide]: the EC50 was under 500 nM. On to `N#Cc1ccc(OC2CCN(C(=O)c3ccc(C(=O)NC4CCN(Cc5nccs5)CC4)cn3)CC2)cc1` [Compound 356, 6-(4-(4-cyanophenoxy)piperidine-1-carbonyl)-N-(1-(thiazol-2-ylmethyl)piperidin-4-yl)nicotinamide], for which the EC50 is under 500 nM.
